# Measurements from patent US20040214762A1, “Use of inhibitors of proline endopeptidase to modulate inositol (1,4,5) triphosphate concentration dependent on intracellular signal cascades” (priority 2001, published 2004).
# Assays:
# [1] = target: T1, purified recombinant human prolyl endopeptidase (Homo sapiens, UniProt P48147); assay: Determination of IC50 with Z-Gly-Pro-AMC; assay type: biochemical; conditions: Z-Gly-Pro-AMC 10 μM, 37° C., 60 min
# T1 sequence (P48147 1-710): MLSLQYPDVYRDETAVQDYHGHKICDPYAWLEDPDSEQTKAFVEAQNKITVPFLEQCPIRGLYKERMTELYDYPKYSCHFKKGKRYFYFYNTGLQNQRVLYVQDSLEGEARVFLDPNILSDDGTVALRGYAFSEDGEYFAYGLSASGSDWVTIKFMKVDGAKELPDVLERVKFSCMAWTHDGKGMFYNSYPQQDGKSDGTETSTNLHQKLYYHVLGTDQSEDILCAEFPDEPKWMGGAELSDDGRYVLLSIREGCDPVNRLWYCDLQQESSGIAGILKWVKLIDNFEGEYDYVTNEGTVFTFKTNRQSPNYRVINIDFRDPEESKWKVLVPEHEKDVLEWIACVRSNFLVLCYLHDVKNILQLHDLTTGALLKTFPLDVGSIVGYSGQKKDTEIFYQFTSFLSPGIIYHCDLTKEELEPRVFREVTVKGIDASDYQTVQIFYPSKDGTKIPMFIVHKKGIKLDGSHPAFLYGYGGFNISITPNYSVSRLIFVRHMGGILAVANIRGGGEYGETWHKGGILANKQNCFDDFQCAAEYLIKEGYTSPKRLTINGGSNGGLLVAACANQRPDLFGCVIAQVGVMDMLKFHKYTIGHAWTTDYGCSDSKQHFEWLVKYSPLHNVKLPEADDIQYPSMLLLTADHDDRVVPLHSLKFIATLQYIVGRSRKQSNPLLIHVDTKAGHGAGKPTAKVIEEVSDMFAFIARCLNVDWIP
# Method: 100 μl inhibitor stock solution were mixed with 100 μl buffer (EPES pH7.6) and 50 μl substrate (Z-Gly-Pro-AMC, final concentration 10 μM). Reaction was started by addition of 20 μl purified recombinant human prolyl endopeptidase. Fluorescence measurement was performed at 37° C. and λexiatation=380 nm, λemission=465 nm for 60 min using a plate reader (HTS7000plus, Applied Biosystems, Weiterstadt, Germany). The final inhibitor concentrations ranged between 1 pM and 10 μM. For calculation of the IC50 value Prism 3″ (Graphpad) was used. The IC50-value of Benzyl-N-[1-(cyclopentylcarbonyl)-2-methylbutyl]carbamate was calculated as of IC50=8,91*10^−7 M
# [2] = tested on: IP3 concentration in U343 cells; assay: IP3 concentration in U343 cells treated with PEP inhibitor (isotope dilution method); assay type: cell-based, human
# Method: To characterize the intracellular function of PEP, the IP3 concentration in the antisense cell lines Was measured. Cells were grown in 25 cm^2 culture flasks to nearly 100% confluence. IP3 concentration was determined by an isotope dilution method (Amersham Phamacia Biotech) using 0.5×10^6 cells per measurement. To inhibit intracellular PEP, the cells were washed twice with PBS and incubated for 4 hours in Optimem 1 medium (GIBCO BRL) supplemented with 5 μM PEP-inhibitor Fmoc-alanyl-pyrroline-2-nitrile (Fmoc-Ala-Pyrr-CN). All measurements were done in quadruplicate. The calculation of IP3 concentration and the statistical analysis (t-test) were performed using Prism 3.0 (Graph Pad Software).
# To use an alternative approach suppressing PEP activity in U343 cells, the cells were incubated for 3 hours in presence of the specific inhibitor Fmoc-Ala-Pyrr-CN (5 μM). The influence of DMSO, necessary for dissolving the inhibitor, was excluded by adding the same amount (0.05%) of DMSO to the media of control cells. […] However, the observed changes in IP3 concentration were only 0.16 pmol/10^6 cells. This is much lower than the observed change on IP3 concentration in cell line as-11 still having 30% remaining PEP activity, and calls into question the correlation between PEP activity and IP3 concentration. […] Moreover, the lower concentration of IP3 measured after 24 hours reflects the slight recovery of PEP activity at that time point. The total amount of IP3 after 12 hours (1.69±0.1) pmol/10^6 cells; n=4) is higher than the concentration measured in cell line as-11 (0.9±0.07 pmol/10^6 cells; n=4), displaying 30% remaining enzyme activity.
# [3] = tested on: IP3 concentration in U343 cells; assay: IP3 concentration in U343 cells after stimulation by substance P; assay type: cell-based, human; conditions: for difference in IP3 concentration by inhibition: 5 μM inhibitor 12 hours
# Method: To characterize the intracellular function of PEP, the IP3 concentration in the antisense cell lines Was measured. Cells were grown in 25 cm^2 culture flasks to nearly 100% confluence. IP3 concentration was determined by an isotope dilution method (Amersham Phamacia Biotech) using 0.5×10^6 cells per measurement. […] All measurements were done in quadruplicate. The calculation of IP3 concentration and the statistical analysis (t-test) were performed using Prism 3.0 (Graph Pad Software).
# Wild-type and PEP antisense U343 cell lines were cultured in duplicate in 21 cm^2 culture dishes (Greiner) until confluence. Prior to stimulation the cells were washed twice in PBS and preincubated for 10 h in Optimem1 medium containing 1.6 μg/ml leupeptin (Sigma), 0.86 μg/ml chymostatin (Sigma), and 40 μg/ml bacitracin (Sigma) at 37° C. and 5% CO2. Substance P (Bachem) was added to obtain a final concentration of 1×10^−6 M and the incubation was stopped at the indicated time by rapidly aspirating the medium and adding of 0.4 ml ice cold trichloric acid. Preparation of samples and measurement of IP3 concentration were performed as described above.
# [4] = target: T2, intracellular PEP activity (Homo sapiens, UniProt P48147); assay: Inhibition of intracellular PEP activity in U343 cells (Z-Gly-Pro-NHMec); assay type: cell-based
# T2 construct: endogenous in cells; host or cells: U343 human astro glioma cells (wild type)
# T2 sequence (P48147 1-710): T1 sequence (P48147 1-710)
# Method: (§1) Two different approaches were chosen to influence the intracellular activity of PEP in U343 cells. Fmoc-Ala-Pyrr-CN is a potent and specific inhibitor for PEP (9), with an observed Ki value of 70 pM against recombinant human PEP (data not shown). It has been shown that this inhibitor is able to penetrate the cell membrane and inhibit PEP intracellularly (10). […] This inhibition is observed for up to 12 hours without adding fresh inhibitor. In addition, a totally different approach of reducing PEP activity was employed by generating antisense cell lines displaying reduced expression of the target enzyme.
# For the determination of PEP activity, U343 wild-type and PEP antisense cells (1×10^7) were harvested by washing twice in phosphate buffered saline (GIBCO BRL) and resuspended in 200 μl assay buffer (50 mM HEPES pH 7.5; 200 mM NaCl; 1 mM EDTA; 1 mM DTT). […] The protein concentration in the supernatant was determined according to the method of Bradford (5). PEP activity was measured in assay buffer using the fluorogenic substrate Z-Gly-Pro-NHMec (10 μM) (Bachem) on a Kontron spectrofluorometer SFM 25 (excitation 380, emission 460) equipped with a four-cell changer and controlled by an IBM-compatible personal computer. The obtained data were analyzed with the software Flucol (6).
# [5] = target: T3, PEP (Homo sapiens, UniProt P48147); assay: Ki against recombinant human PEP; assay type: biochemical; conditions: data not shown
# T3 sequence (P48147 1-710): T1 sequence (P48147 1-710)
# Method: as §1
# [6] = target: T3, PEP; assay: Degradation of substance P in serum free medium of U343 cells (MALDI-TOF MS); assay type: in vitro ADME; parameters: endogenous in cells; host or cells: U343 human astro glioma cells (wild type); conditions: serum free Optimem1 medium of U343 cells, 10 min; data not shown
# Method: Using RT-PCR, the occurrence of substance P specific neurokinin receptors (NK-R) in U343 cells was investigated. PCR products could be obtained for two receptors displaying an appropriate size (FIG. 5). […] Being aware that substance P is an excellent in vitro substrate for PEP, we investigated potential degradation of substance P during the incubation time in the serum free Optimem1 medium of U343 cells by MALDI-TOF MS analysis. […] This is in agreement with the fact that no PEP activity is measurable in the medium (FIG. 6).
compound,measurement,setting,value
CCC(C)C(NC(=O)OCc1ccccc1)C(=O)C1CCCC1 (stereo not shown) [Benzyl-N-[1-(cyclopentylcarbonyl)-2-methylbutyl]carbamate],IC50,[1],891 nM
Fmoc-alanyl-pyrroline-2-nitrile [Fmoc-Ala-Pyrr-CN],change in IP3 concentration,"[2]; 5 μM, 3 hours incubation",0.16 pmol/10^6 cells
same,total amount of IP3,"[2]; 5 μM, after 12 hours total inhibition, n=4",1.69±0.1 pmol/10^6 cells
same,time to maximum IP3 concentration,[2]; single treatment 5 μM,12 h
same,difference in IP3 concentration by inhibition,[3]; U343 cells stimulated with 1 μM substance P 5 sec,7.9 pmol/10^6 cells
same,"kinetic profile of IP3 stimulation by substance P, inhibitor treated vs control cells","[3]; U343 wild-type cells, 5 μM for 12 hours, 1 μM substance P","slight increased, but similar pattern"
same,proportional difference in IP3 concentration by inhibition,[3]; non stimulated U343 cells,5.5 fold
same,difference in IP3 concentration by inhibition,[3]; non stimulated U343 cells,1.7 pmol/10^6 cells
same,proportional difference in IP3 concentration by inhibition,[3]; substance P stimulated U343 cells,1.7 fold
same,duration of inhibition without adding fresh inhibitor,[4]; 5 μM,up to 12 hours
same,inhibition of intracellular PEP activity,[4]; 5 μM in medium,total inhibition
same,Ki,[5],0.07 nM
"substance P: neuropeptide (Bachem), peptide hormone used to stimulate U343 cells",time of maximum IP3 concentration after stimulation,"[3]; U343 wild-type untreated or inhibitor treated and as-2 cells, 1 μM substance P",5 s
same,rise of IP3 concentration by substance P stimulation,"[3]; wild-type U343 cells, 1 μM substance P, 5 sec",about 14 fold
same,IP3 concentration after substance P stimulation,"[3]; wild-type U343 cells, 1 μM substance P, 5 sec, n=4",5.4±0.49 pmol/10^6 cells
same,PEP specific degradation,[6],no PEP specific degradation was observed
